Source: publication PMC3435281 (PLoS ONE, 2012)

Key:
DBA/2J mice (AHR^d) = assay: In vivo hepatic microsomal EROD activity, DBA/2J; set-up: species or system mouse; conditions: oral 120 mg/kg, 48 hours
Protocol: (§1) We utilized the wild type rat hepatoma cell line, 5L, which harbors the high affinity AHR isoform, and our newly created AHR^d-15 cell line. […] Groups of control mice were given corn oil alone or BNF at the concentration of 120 mg/kg.
(§2) Figure 3 In Vitro dose response curves. A. Rat hepatoma cell lines bearing the murine AHR^d (AHR^d-15) or the rat AHR^b (5L) were incubated with increasing doses of TCDD in 96-well plates. After 40 hours, EROD activity was performed from whole cell lysate. (n = 3). […] (n = 3). C. Same assay as in A, with increasing doses of BNF. (n = 2). […] Following 48 hours, hepatic microsomal proteins were isolated and used for the assessment of EROD activity. Animals were treated in groups of 4. Error bars: S.D.
Hepatic microsomes were prepared by homogenizing 0.5 g of liver tissue in 5 mL of MENG buffer (25 mM buffer sodium morpholinopropane sulfonate buffer (pH 7.5) containing 0.025% (w/v) NaN3, 1 mM EGTA and 10% (v/v) glycerol). The homogenate was subjected to centrifugation at 10,000×g for 20 minutes, followed by centrifugation of the supernatant for 1 hour at 100,000×g and 4°C. The pellet was dissolved in 15 mM Tris-HCl buffer containing 250 mM sucrose (pH 8.0) and aliquots were stored at −80°C. Protein concentration was determined using the Bicinchoninic Acid Protein Assay Reagent (Pierce Biotechnology, Rockford, IL). […]

rat AHR^b (5L) = target: T1, rat AHR^b (5L) (Rattus norvegicus, UniProt P41738); assay: EROD activity in rat hepatoma 5L cells; assay type: cell-based; conditions: 5L cell line, 40 hours
T1 construct: endogenous in cells; host or cells: rat hepatoma 5L cells
Protocol: as §1, §2
(§3) High-throughput analysis of EROD activity was assayed by adapting a protocol that was described elsewhere, [63]. Briefly, cells were seeded into 96-well plates at ∼ 60% density and treated with the test compounds for 36 hours. The cells were washed with PBS and lysed with 30 µL water and a cycle of freeze-thaw. To each well, 150 µL of 50 mM Hepes buffer containing 26.7 µM dicumarol and 13.3 µM ethoxyresorufin were added. The samples were incubated at 30°C for 20 minutes, and 50 µL of 0.5 mM β-NADPH were added to initiate the reaction. Fluorescence of the resorufin product was detected using the 544 nm excitation and 590 nm emission wavelength filter set.

murine AHR^d = target: T2, murine AHR^d (Mus musculus, UniProt P30561, A375V); assay: EROD activity in AHR^d-15 cells (rat hepatoma BP8 stably transfected with AHR^d)
T2 sequence (P30561 10-848 A375V): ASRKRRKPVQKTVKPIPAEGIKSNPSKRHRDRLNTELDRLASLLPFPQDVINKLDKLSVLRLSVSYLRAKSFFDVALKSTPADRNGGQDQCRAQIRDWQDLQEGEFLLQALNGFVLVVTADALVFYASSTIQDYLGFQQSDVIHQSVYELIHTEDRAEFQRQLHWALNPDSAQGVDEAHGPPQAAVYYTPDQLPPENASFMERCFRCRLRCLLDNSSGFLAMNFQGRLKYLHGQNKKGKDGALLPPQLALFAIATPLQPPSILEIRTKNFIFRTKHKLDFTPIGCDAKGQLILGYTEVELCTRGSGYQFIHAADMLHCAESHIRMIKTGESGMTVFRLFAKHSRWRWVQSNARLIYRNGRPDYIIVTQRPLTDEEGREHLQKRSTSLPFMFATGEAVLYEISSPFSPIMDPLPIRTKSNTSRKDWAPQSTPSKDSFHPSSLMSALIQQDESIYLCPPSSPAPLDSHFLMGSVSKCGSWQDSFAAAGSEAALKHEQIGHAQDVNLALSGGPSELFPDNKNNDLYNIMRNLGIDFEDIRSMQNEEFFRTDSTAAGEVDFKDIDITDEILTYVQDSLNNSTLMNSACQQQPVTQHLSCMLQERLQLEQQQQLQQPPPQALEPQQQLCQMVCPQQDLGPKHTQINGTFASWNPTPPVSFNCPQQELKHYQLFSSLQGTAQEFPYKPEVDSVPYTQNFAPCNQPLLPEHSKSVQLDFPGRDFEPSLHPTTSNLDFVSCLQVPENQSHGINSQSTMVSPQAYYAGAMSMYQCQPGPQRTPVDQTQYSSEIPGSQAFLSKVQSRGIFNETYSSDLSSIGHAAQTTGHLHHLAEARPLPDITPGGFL
From the text: The 100 “hit compounds” from the primary screen were subsequently screened for their capacity to activate the low-affinity murine AHR^d receptor isoform using the activity of the endogenous Cyp1a1 gene as a readout. To this end, we established a hepatoma cell line that expresses the AHR^d receptor isoform derived from the DBA/2J mouse. An AHR^d-expressing cell line was generated by stably transfecting the AHR^d cDNA into the rat hepatoma AHR-deficient cell line, BP8 [15]. After stable selection with G418, a subclone (AHR^d-15) was analyzed for receptor expression and function. […] To confirm that the AHR^d-15 clone expressed a functional low affinity AHR^d isoform, we examined the receptor-mediated response to the prototype agonists, TCDD and β-naphthoflavone (BNF).
To test the ability of the 100 AHR inducers to activate the AHR^d-15 cells, they were treated with each of the compounds at the dose of 1 µM, for 36 hours in 96-well plates.
as §2
The open reading frame of the AHR^d gene (PL2047) was amplified by PCR using oligos OL5127 (5′-[…]-3′) and OL5128 (5′-[…]-3′). The product was ligated into the pTARGET™ mammalian expression vector (Promega, Madison, WI). The resulting plasmid was transfected into the AHR-deficient cell line, BP8 [15], using Effectene transfection reagent (Qiagen Inc., Valencia, CA). Stable integrants were selected with 6 mg/ml of G418 for 2 weeks, beginning at 48-hours post-transfection. Clones derived from single cells were screened for their response to nanomolar doses of dioxin or micromolar doses of BNF, as measured by ethoxyresorufin O-deethylase (EROD) activity. […] The validated cell line used in these studies was designated line AHR^d-15.
as §3

[1] = tested on: AHR (101L-hepatoma cells); assay: Antagonism of DRE-luciferase activation by CH223191; assay type: cell-based, human
[2] = target: AHR^b isoform (C57BL/6J hepatic cytosol) (Mus musculus, UniProt P30561); conditions: read-out: IC50, competitive binding; C57BL/6J cytosol, 1 nM radioligand 125IBr2N3DpD
Chain of AHR^b isoform (C57BL/6J hepatic cytosol) (P30561 10-805): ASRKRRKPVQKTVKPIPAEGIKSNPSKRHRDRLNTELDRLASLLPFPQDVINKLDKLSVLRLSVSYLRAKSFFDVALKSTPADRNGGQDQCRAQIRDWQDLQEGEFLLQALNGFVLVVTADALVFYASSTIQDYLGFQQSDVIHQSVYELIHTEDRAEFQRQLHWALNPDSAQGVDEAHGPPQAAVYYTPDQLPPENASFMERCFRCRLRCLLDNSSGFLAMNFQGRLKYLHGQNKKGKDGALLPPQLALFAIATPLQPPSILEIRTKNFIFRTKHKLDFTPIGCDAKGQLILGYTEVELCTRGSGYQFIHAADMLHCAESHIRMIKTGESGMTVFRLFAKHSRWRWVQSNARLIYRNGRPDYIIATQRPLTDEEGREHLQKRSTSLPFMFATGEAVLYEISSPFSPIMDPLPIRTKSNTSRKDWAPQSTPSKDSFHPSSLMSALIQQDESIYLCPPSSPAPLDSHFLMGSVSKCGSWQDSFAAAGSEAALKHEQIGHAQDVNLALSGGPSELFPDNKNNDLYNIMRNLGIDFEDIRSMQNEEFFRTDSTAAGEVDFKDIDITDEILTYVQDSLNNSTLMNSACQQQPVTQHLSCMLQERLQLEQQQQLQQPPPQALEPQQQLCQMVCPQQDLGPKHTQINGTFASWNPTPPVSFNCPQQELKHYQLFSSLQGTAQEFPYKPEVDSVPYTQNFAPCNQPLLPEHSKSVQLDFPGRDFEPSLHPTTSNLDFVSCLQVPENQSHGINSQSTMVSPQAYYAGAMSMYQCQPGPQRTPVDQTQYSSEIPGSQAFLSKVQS

T1 sequence (P41738 10-853): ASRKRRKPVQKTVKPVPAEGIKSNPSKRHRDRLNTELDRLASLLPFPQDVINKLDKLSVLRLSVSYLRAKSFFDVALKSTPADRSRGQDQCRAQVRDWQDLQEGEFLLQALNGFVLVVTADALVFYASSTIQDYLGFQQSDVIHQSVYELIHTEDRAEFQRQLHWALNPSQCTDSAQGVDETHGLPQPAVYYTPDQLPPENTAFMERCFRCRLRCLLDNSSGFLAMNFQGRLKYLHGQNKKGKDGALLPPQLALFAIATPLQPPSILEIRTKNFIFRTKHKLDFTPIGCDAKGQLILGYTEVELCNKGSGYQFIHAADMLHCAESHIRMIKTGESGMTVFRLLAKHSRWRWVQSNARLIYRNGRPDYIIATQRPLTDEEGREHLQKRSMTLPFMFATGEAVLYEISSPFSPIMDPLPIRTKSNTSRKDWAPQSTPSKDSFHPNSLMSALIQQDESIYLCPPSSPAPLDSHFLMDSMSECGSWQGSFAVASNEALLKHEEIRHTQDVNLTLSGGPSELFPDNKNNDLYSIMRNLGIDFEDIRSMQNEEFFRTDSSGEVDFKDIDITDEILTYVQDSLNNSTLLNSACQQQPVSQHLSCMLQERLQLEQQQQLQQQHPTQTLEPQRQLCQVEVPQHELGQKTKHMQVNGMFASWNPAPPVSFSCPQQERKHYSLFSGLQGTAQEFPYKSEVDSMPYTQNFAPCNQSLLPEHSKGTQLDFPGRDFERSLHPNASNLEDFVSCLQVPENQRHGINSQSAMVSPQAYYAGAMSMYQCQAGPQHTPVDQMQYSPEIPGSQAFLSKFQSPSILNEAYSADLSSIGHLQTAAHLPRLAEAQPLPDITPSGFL

For `O=c1cc(-c2ccccc2)oc2ccc3ccccc3c12` [BNF, β-naphthoflavone], the “hepatic EROD activity” value (DBA/2J mice (AHR^d)) was “dramatically decreased in vivo activity”, the EROD response (rat AHR^b (5L)) was “strong response” and the EROD response (murine AHR^d; AHR^d-15 cell line, 40 hours) was “no response”. The “AHR-mediated response (EROD activity)” value (murine AHR^d; AHR^d-15 cells, doses as high as 10 µM, 36 hours) was “inactive”.

`Cc1ccccc1N=Nc1ccc(NC(=O)c2ccnn2C)c(C)c1` [CH223191] was tested, and the “inhibition of SU5416-induced DRE activation” value ([1]; antagonist 10 µM, titration of SU5416, 4 hours) was “only a small amount of inhibition”, the “inhibition of TCDD-induced DRE activation” value ([1]; titration of antagonist with 1 nM TCDD, 4 hours) was “inhibited” and the “inhibition of SU5416-induced DRE activation” value ([1]; titration of antagonist with 100 nM SU5416, 4 hours) was “minimal inhibition”.

`c1ccc2cc3c(ccc4ccccc43)cc2c1` [1,2-Benzanthracene] gave an IC50 [2] of 13.7 nM.
